The source made the active and inactive calls. How the calls were made is not given here.
System: CCRIS mutagenicity, Ames/micronucleus/aberration tests
Assay: CCRIS mutagenicity studies
[1] = Test System: AMES SALMONELLA TYPHIMURIUM, Strain/Indicator: TA98, Metabolic Activation: NONE, Method: STANDARD PLATE
[2] = Test System: AMES SALMONELLA TYPHIMURIUM, Strain/Indicator: TA100, Metabolic Activation: NONE, Method: STANDARD PLATE
[3] = Test System: AMES SALMONELLA TYPHIMURIUM, Strain/Indicator: TA1535, Metabolic Activation: NONE, Method: STANDARD PLATE
[4] = Test System: AMES SALMONELLA TYPHIMURIUM, Strain/Indicator: TA1537, Metabolic Activation: NONE, Method: STANDARD PLATE
[5] = Test System: AMES SALMONELLA TYPHIMURIUM, Strain/Indicator: TA1538, Metabolic Activation: NONE, Method: STANDARD PLATE

Structure (SMILES): C=CCc1ccc(O)c(OC)c1
- mutagenic call (End Point: IN VITRO CHROMOSOMAL ABERRATIONS, Test System: CHINESE HAMSTER OVARY CELLS, Metabolic Activation: NONE): inactive; negative
- mutagenic call (End Point: IN VITRO CHROMOSOMAL ABERRATIONS, Test System: CHINESE HAMSTER OVARY CELLS, Metabolic Activation: RAT, LIVER, S-9, AROCLOR 1254): active; positive
- mutagenic call (End Point: IN VITRO CHROMOSOMAL ABERRATIONS, Test System: CHO-WBL CELLS, Metabolic Activation: RAT, LIVER, S-9, PHENOBARBITAL AND BETA-NAPHTHOFLAVONE): active; positive (at 24 hr)
- mutagenic call (End Point: IN VITRO CHROMOSOMAL ABERRATIONS, Test System: SYRIAN HAMSTER EMBRYO (SHE) CELLS, Metabolic Activation: NONE): active; positive (structural changes)
- mutagenic call (End Point: IN VITRO CHROMOSOMAL ABERRATIONS, Test System: SYRIAN HAMSTER EMBRYO (SHE) CELLS, Metabolic Activation: RAT, LIVER, S-9): active; positive (structural changes)
- mutagenic call (End Point: IN VIVO MICRONUCLEUS, Test System: BONE MARROW POLYCHROMATIC ERYTHROCYTES, Species: MOUSE, Strain/Sex: DDY/MALE, Route: IP): inactive; negative
- mutagenic call (Test System: AMES SALMONELLA TYPHIMURIUM, Strain/Indicator: TA97, Metabolic Activation: NONE, Method: PREINCUBATION (120 MIN)): inactive; negative
- mutagenic call (Test System: AMES SALMONELLA TYPHIMURIUM, Strain/Indicator: TA97, Metabolic Activation: S-9, Method: PREINCUBATION (120 MIN)): inactive; negative
- mutagenic call (Test System: AMES SALMONELLA TYPHIMURIUM, Strain/Indicator: TA98, Metabolic Activation: HAMSTER, LIVER, S-9, AROCLOR 1254, Method: PREINCUBATION): inactive; negative
- mutagenic call (Test System: AMES SALMONELLA TYPHIMURIUM, Strain/Indicator: TA98, Metabolic Activation: NONE, Method: PREINCUBATION): inactive; negative
- mutagenic call (Test System: AMES SALMONELLA TYPHIMURIUM, Strain/Indicator: TA98, Metabolic Activation: NONE, Method: PREINCUBATION (120 MIN)): inactive; negative
- mutagenic call [1]: inactive; negative
- mutagenic call (Test System: AMES SALMONELLA TYPHIMURIUM, Strain/Indicator: TA98, Metabolic Activation: RAT, LIVER, S-9, AROCLOR 1254, Method: PREINCUBATION): inactive; negative
- mutagenic call (Test System: AMES SALMONELLA TYPHIMURIUM, Strain/Indicator: TA98, Metabolic Activation: RAT, LIVER, S-9, AROCLOR 1254, Method: STANDARD PLATE): inactive; negative
- mutagenic call (Test System: AMES SALMONELLA TYPHIMURIUM, Strain/Indicator: TA98, Metabolic Activation: S-9, Method: PREINCUBATION (120 MIN)): inactive; negative
- mutagenic call (Test System: AMES SALMONELLA TYPHIMURIUM, Strain/Indicator: TA98, Metabolic Activation: S-9, Method: STANDARD PLATE): inactive; negative
- mutagenic call (Test System: AMES SALMONELLA TYPHIMURIUM, Strain/Indicator: TA100, Metabolic Activation: HAMSTER, LIVER, S-9, AROCLOR 1254, Method: PREINCUBATION): inactive; negative
- mutagenic call (Test System: AMES SALMONELLA TYPHIMURIUM, Strain/Indicator: TA100, Metabolic Activation: NONE, Method: PREINCUBATION): inactive; negative
- mutagenic call (Test System: AMES SALMONELLA TYPHIMURIUM, Strain/Indicator: TA100, Metabolic Activation: NONE, Method: PREINCUBATION (120 MIN)): inactive; negative
- mutagenic call [2]: inactive; negative
- mutagenic call (Test System: AMES SALMONELLA TYPHIMURIUM, Strain/Indicator: TA100, Metabolic Activation: RAT, LIVER, S-9, AROCLOR 1254, Method: PREINCUBATION): inactive; negative
- mutagenic call (Test System: AMES SALMONELLA TYPHIMURIUM, Strain/Indicator: TA100, Metabolic Activation: RAT, LIVER, S-9, AROCLOR 1254, Method: STANDARD PLATE): inactive; negative
- mutagenic call (Test System: AMES SALMONELLA TYPHIMURIUM, Strain/Indicator: TA100, Metabolic Activation: S-9, Method: PREINCUBATION (120 MIN)): inactive; negative
- mutagenic call (Test System: AMES SALMONELLA TYPHIMURIUM, Strain/Indicator: TA100, Metabolic Activation: S-9, Method: STANDARD PLATE): inactive; negative
- mutagenic call (Test System: AMES SALMONELLA TYPHIMURIUM, Strain/Indicator: TA1535, Metabolic Activation: HAMSTER, LIVER, S-9, AROCLOR 1254, Method: PREINCUBATION): inactive; negative
- mutagenic call (Test System: AMES SALMONELLA TYPHIMURIUM, Strain/Indicator: TA1535, Metabolic Activation: NONE, Method: PREINCUBATION): inactive; negative
- mutagenic call [3]: inactive; negative
- mutagenic call (Test System: AMES SALMONELLA TYPHIMURIUM, Strain/Indicator: TA1535, Metabolic Activation: PAPS, Method: STANDARD PLATE): inactive; negative
- mutagenic call (Test System: AMES SALMONELLA TYPHIMURIUM, Strain/Indicator: TA1535, Metabolic Activation: RAT, LIVER, S-9, AROCLOR 1254, PAPS, Method: STANDARD PLATE): active; positive
- mutagenic call (Test System: AMES SALMONELLA TYPHIMURIUM, Strain/Indicator: TA1535, Metabolic Activation: RAT, LIVER, S-9, AROCLOR 1254, Method: PREINCUBATION): inactive; negative
- mutagenic call (Test System: AMES SALMONELLA TYPHIMURIUM, Strain/Indicator: TA1535, Metabolic Activation: RAT, LIVER, S-9, AROCLOR 1254, Method: STANDARD PLATE): inactive; negative
- mutagenic call (Test System: AMES SALMONELLA TYPHIMURIUM, Strain/Indicator: TA1537, Metabolic Activation: HAMSTER, LIVER, S-9, AROCLOR 1254, Method: PREINCUBATION): inactive; negative
- mutagenic call (Test System: AMES SALMONELLA TYPHIMURIUM, Strain/Indicator: TA1537, Metabolic Activation: NONE, Method: PREINCUBATION): inactive; negative
- mutagenic call [4]: inactive; negative
- mutagenic call (Test System: AMES SALMONELLA TYPHIMURIUM, Strain/Indicator: TA1537, Metabolic Activation: RAT, LIVER, S-9, AROCLOR 1254, Method: PREINCUBATION): inactive; negative
- mutagenic call (Test System: AMES SALMONELLA TYPHIMURIUM, Strain/Indicator: TA1537, Metabolic Activation: RAT, LIVER, S-9, AROCLOR 1254, Method: STANDARD PLATE): inactive; negative
- mutagenic call [5]: inactive; negative
- mutagenic call (Test System: AMES SALMONELLA TYPHIMURIUM, Strain/Indicator: TA1538, Metabolic Activation: RAT, LIVER, S-9, AROCLOR 1254, Method: STANDARD PLATE): inactive; negative
- mutagenic call (Test System: MOUSE LYMPHOMA, Strain/Indicator: L5178Y (TK+/TK-), Metabolic Activation: NONE, Method: MICROWELL): active; positive
- mutagenic call (Test System: MOUSE LYMPHOMA, Strain/Indicator: L5178Y (TK+/TK-), Metabolic Activation: S-9, Method: MICROWELL): active; positive

Structure (SMILES): C[C@H]1CCCC(=O)CCCCCc2cc(O)cc(O)c2C(=O)O1
- mutagenic call [1]: inactive; negative
- mutagenic call (Test System: AMES SALMONELLA TYPHIMURIUM, Strain/Indicator: TA98, Metabolic Activation: RAT, LIVER, S-9, Method: STANDARD PLATE): inactive; negative
- mutagenic call [2]: inactive; negative
- mutagenic call (Test System: AMES SALMONELLA TYPHIMURIUM, Strain/Indicator: TA100, Metabolic Activation: RAT, LIVER, S-9, Method: STANDARD PLATE): inactive; negative
- mutagenic call [3]: inactive; negative
- mutagenic call (Test System: AMES SALMONELLA TYPHIMURIUM, Strain/Indicator: TA1535, Metabolic Activation: RAT, LIVER, S-9, Method: STANDARD PLATE): inactive; negative; toxicity at 1000 ug/plate
- mutagenic call [4]: inactive; negative
- mutagenic call (Test System: AMES SALMONELLA TYPHIMURIUM, Strain/Indicator: TA1537, Metabolic Activation: RAT, LIVER, S-9, Method: STANDARD PLATE): inactive; negative
- mutagenic call [5]: inactive; negative
- mutagenic call (Test System: AMES SALMONELLA TYPHIMURIUM, Strain/Indicator: TA1538, Metabolic Activation: RAT, LIVER, S-9, Method: STANDARD PLATE): inactive; negative

Structure (SMILES): C(CC1CO1)C1CO1 (configuration not stated)
- mutagenic call [2]: active; positive
- mutagenic call [3]: active; positive

From PubChem BioAssay AID1259407 (Chemical Carcinogenesis Research Information System (CCRIS), 2018)
